In patent US20040043403A1, “Process for determining the biological activity of epidermal growth factor receptor tyrosine kinase inhibitors” (priority 2000, published 2004):

Tests used:
MDA-MB468 = experiment: Western blot of clusterin induction in MDA-MB468 cells; format: cell-based, human; details: MDA-MB468 cells (high levels of EGFR), 300 nM, 24 h, vs 0.03% DMSO
Method: An EGFR tyrosine kinase inhibitor is dissolved in DMSO to obtain a 10 mM stock solution. The stock solution is further diluted in culture medium to final concentrations of 10 nM to 3 μM. 3.5 million cells/100 mm dish/12 ml culture medium are incubated for 24 h in 5% CO2 at 37° C. The medium is replaced with medium containing the EGFR tyrosine kinase inhibitor or DMSO. Cells are incubated for 4 to 32 h. The frozen pellets are lysed in 500 μl of lysis buffer (50 mM Tris-HCl pH 7.5, 1% Sodium Dodecyl Sulfate (SDS)). To shear genomic DNA, the cell lysates are processed in a FastPrep instrument for 20 sec at a speed rating of 4, using the green […] tubes (Bio101#6040-6010). Protein concentrations are determined according to the PIERCE-method (BCA Protein Assay, Reagent A and B). Protein concentration of lysates is adjusted to 1 μg/μl with lysis buffer. 4 parts of cell lysates are mixed with 1 part of 5 fold concentrated Laemmli buffer, the lysates are stored at -20° C. 40 μl of cell lysate is heated for 3 min to 95° C. and directly loaded on to 10% or 15% SDS-PAGE gels. The gels are run at 130 V for 90 min under standard conditions. The separated proteins are semi-dry blotted on to a PVDF membrane (Immobilon-P, Millipore #IPVH 202 00) for 70 min with 45 mA per blot. […]

WBC = experiment: Real time RT-PCR gene expression in White Blood Cells; format: cell-based, human; details: 3 μM, 24 h
Method: The leucocyte-enriched fraction (buffy coat) is obtained from a healthy donor. 10 ml buffy coat, diluted with 25 ml RPMI 1640 medium is layered on 4 ml Ficoll-Paque (Pharmacia) and centrifuged at 1′200×g for 15 min. The White Blood Cell (WBC) layer at the interface is removed, the cells are washed 2 times with RPMI 1640 medium to remove platelets. WBCs are cultured in RPMI 1640 medium plus 10% Fetal Calf Serum (FCS) in T-150 flask, 100 million cells/100 ml and are incubated for 1 h at 37° C. before treatment. 20 million tissue culture cells (about 80% confluent) or 200 million WBCs are incubated for 2 or 24 h in culture medium containing 3 μM of an EGFR tyrosine kinase inhibitor or 0.03% DMSO. Total RNA from cell pellet is isolated using the RNeasy kit (Qiagen). mRNA is isolated using the oligotex mRNA purification kit (Qiagen). The quality of the obtained mRNA is tested by real time RT-PCR using beta-Actin primers (PE Applied Biosystems) with an amplicon size of 300 base pairs (bp). The total RNA is used as a reference to calculate the amount of mRNA-enrichment in the oligotex purified samples. The primers and probes are designed from mRNA sequences within the coding region or in the 3′ untranslated region (Table 2). For real time RT-PCR, RNA concentrations between 1 and 50 ng/reaction are used to obtain signals between 15-35 cycles. For each RNA preparation RT-PCR reactions are performed with and without reverse transcriptase to check for genomic DNA contamination. In all RNA samples tested, genomic DNA contamination is less than 1%. To normalize for variability in the initial concentration and quality of the total RNA, Glyceraldehyde-3-phosphate dehydrogenase (GAPDH) is used as an endogenous reference in all quantification experiments. For RT-PCR a one step, two-enzyme system is chosen. The TaqMan PCR Core Reagent Kit (PE #N808-0228) plus the reverse transcriptase MuLV (PE Biosystems # N808-0018) and RNase inhibitor (Roche Diagnostics # 799 025) are mixed as described in the manufacturers protocol. Triplicate measurements are done for target and for reference reactions. […] RT-PCR reactions are done with RNA concentrations of 2.5, 5, 10, 20, 40 and 80 ng per reaction. The absolute value of the slope of (log input amount) vs. ΔCT should be <0.1. The ΔCT value is determined by subtracting the average reference CT values from the average target CT values of the three measurements. Relative quantification is performed in triplicates, reference and target, using the RT-PCR protocol described above. […] Expression levels for the three genes, calculated relative to NCI-H520, show big differences between the various cell types (Table 5). […]

[1] = WBC, relative to DMSO-treated NCI-H520 calibrator

C[C@@H](Nc1ncnc2[nH]c(-c3ccc(O)cc3)cc12)c1ccccc1 [COMPOUND A, (R)-6-(4-hydroxy-phenyl)-4-[(1-phenyl-ethyl)-amino]-7H-pyrrolo[2,3-d]pyrimidine]
Clusterin induction, Western blot (FIG. 4) (MDA-MB468): strong clusterin expression signals
Relative Clusterin expression (WBC; [1]): 2.03 n-fold
Relative TRAIL expression (WBC; [1]): 22.73 n-fold
Relative VAC-beta expression (WBC; [1]): 2.16 n-fold
TRAIL repression in WBCs (WBC; WBCs, versus DMSO): 2.5 fold
